Measurements reported in patent publication US8324245B2, “Quinoline derivative and quinazoline derivative inhibiting self-phosphorylation of hepatocytus proliferator receptor, and medicinal composition containing the same” (Kyowa Hakko Kirin Co., Ltd., priority 2001, dated 2012).

Biological target: T1, met (HGF receptor) in human gastric cancer cells MKN45 (Homo sapiens, UniProt P08581)
T1 construct: endogenous in cells; host or cells: MKN45 human gastric cancer cells
Assay: Inhibitory activity against met-autophosphorylation using ELISA method (2), MKN45 cells, HGF-independent
Assay type: cell-based
How it was run: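 MKN45 cells, 3×10^4 per well in RPMI with 0.1% FCS overnight, were exposed to compound in DMSO for 1 h at 37 °C without HGF. Lysates were captured on anti-phosphotyrosine (PY20) plates, Met detected with anti-Met and peroxidase secondary antibody, absorbance at 450 nm.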

T1 sequence (P08581 25-1390): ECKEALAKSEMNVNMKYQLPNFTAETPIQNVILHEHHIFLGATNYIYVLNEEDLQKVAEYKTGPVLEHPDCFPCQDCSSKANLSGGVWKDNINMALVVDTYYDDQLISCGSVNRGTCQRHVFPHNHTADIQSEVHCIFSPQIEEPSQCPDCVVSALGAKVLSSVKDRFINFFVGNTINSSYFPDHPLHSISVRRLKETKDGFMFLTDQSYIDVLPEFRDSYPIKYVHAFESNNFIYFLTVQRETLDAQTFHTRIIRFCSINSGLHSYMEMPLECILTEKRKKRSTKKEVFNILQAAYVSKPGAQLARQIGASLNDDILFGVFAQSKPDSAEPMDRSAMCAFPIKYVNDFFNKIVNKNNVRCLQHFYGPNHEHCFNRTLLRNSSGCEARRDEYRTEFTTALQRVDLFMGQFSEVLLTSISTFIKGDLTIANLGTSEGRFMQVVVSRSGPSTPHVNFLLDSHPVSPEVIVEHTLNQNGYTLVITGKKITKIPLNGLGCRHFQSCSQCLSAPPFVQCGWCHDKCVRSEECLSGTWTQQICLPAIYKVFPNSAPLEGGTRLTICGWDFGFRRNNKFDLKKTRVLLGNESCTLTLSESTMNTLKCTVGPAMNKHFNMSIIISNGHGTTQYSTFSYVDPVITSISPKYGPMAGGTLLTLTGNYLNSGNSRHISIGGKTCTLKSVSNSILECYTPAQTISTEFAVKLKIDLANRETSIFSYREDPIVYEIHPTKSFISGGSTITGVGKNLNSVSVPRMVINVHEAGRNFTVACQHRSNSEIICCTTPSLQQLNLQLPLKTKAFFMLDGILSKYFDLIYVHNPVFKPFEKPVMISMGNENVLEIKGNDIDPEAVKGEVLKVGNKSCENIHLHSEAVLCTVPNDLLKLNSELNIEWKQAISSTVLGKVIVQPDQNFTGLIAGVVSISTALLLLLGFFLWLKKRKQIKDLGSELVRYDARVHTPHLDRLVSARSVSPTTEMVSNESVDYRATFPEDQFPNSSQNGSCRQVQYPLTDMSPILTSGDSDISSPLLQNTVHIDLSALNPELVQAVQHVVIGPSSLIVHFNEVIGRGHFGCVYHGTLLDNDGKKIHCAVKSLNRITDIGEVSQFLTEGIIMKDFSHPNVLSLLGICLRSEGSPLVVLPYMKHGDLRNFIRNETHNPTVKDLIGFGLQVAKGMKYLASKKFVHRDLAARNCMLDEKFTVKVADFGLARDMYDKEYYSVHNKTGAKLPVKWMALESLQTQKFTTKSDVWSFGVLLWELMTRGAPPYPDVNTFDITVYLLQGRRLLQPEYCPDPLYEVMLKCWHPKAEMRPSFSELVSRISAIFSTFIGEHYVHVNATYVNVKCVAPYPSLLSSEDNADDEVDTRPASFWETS

SMILES | IC50 [nM]
COc1cc2nccc(Oc3ccc(NC(=S)NC(=O)CCCCl)cc3F)c2cc1OC [Example 148, 1-(4-chloro-butyryl)-3-[4-(6,7-dimethoxy-quinolin-4-yloxy)-3-fluorophenyl]thiourea] | 2480
COc1cc2nccc(Oc3ccc(NC(=S)NC(=O)Cc4ccccc4C)cc3Cl)c2cc1OC [Example 149, 1-[3-chloro-4-(6,7-dimethoxyquinolin-4-yloxy)phenyl]-3-(2-o-tolylacetyl)thiourea] | 236
COc1cc2nccc(Oc3ccc(NC(=S)NC(=O)Cc4ccccc4F)cc3)c2cc1OC [Example 151, 1-[4-(6,7-dimethoxyquinolin-4-yloxy)phenyl]-3-[2-(2-fluorophenyl)acetyl]thiourea] | 256
COc1cc2nccc(Oc3ccc(NC(=S)NC(=O)Cc4ccccc4F)cc3Cl)c2cc1OC [Example 152, 1-[3-chloro-4-(6,7-dimethoxyquinolin-4-yloxy)phenyl]-3-[2-(2-fluorophenyl)acetyl]thiourea] | 248
COc1ccccc1CC(=O)NC(=S)Nc1ccc(Oc2ccnc3cc(OC)c(OC)cc23)cc1 [Example 153, 1-[4-(6,7-dimethoxyquinolin-4-yloxy)phenyl]-3-[2-(2-methoxyphenyl)acetyl]thiourea] | 232
COc1cc2nccc(Oc3ccc(NC(=S)NC(=O)Cc4ccccc4[N+](=O)[O-])cc3)c2cc1OC [Example 155, 1-[4-(6,7-dimethoxyquinolin-4-yloxy)phenyl]-3-[2-(2-nitrophenyl)acetyl]thiourea] | 982
COc1cc2nccc(Oc3ccc(NC(=S)NC(=O)Cc4ccccc4[N+](=O)[O-])cc3Cl)c2cc1OC [Example 156, 1-[3-chloro-4-(6,7-dimethoxyquinolin-4-yloxy)phenyl]-3-[2-(2-nitrophenyl)acetyl]thiourea] | 373
COc1cc2nccc(Oc3ccc(NC(=S)NC(=O)COc4ccccc4)cc3Cl)c2cc1OC [Example 157, 1-[3-chloro-4-(6,7-dimethoxyquinolin-4-yloxy)phenyl]-3-(2-phenoxyacetyl)thiourea] | 482
COc1cc2nccc(Oc3ccc(NC(=S)NC(=O)[C@H](C)c4ccccc4)cc3)c2cc1OC [Example 158, 1-[4-(6,7-dimethoxyquinolin-4-yloxy)phenyl]-3-(2-phenylpropionyl)thiourea] | 465
CCOCCC(=O)NC(=S)Nc1ccc(Oc2ccnc3cc(OC)c(OC)cc23)c(Cl)c1 [Example 159, 1-[3-chloro-4-(6,7-dimethoxyquinolin-4-yloxy)phenyl]-3-(3-ethoxypropionyl)thiourea] | 585
COc1cc2nccc(Oc3ccc(NC(=S)NC(=O)c4ccc(C)s4)cc3)c2cc1OC [Example 160, 1-[4-(6,7-dimethoxyquinolin-4-yloxy)phenyl]-3-(5-methylthiophen-2-carbonyl)thiourea] | 1630
COc1cc2nccc(Oc3ccc(NC(=S)NC(=O)CCC4CCCC4)cc3)c2cc1OC [Example 161, 1-(3-cyclopentylpropionyl)-3-[4-(6,7-dimethoxyquinolin-4-yloxy)phenyl]thiourea] | 246
COc1cc2nccc(Oc3ccc(NC(=S)NC(=O)Cc4ccccc4)c(C)c3)c2cc1OC [Example 162, 1-[4-(6,7-dimethoxyquinolin-4-yloxy)-2-methylphenyl]-3-phenylacetylthiourea] | 210
COc1cc2nccc(Oc3cc(C)c(NC(=S)NC(=O)Cc4ccccc4)cc3C)c2cc1OC [Example 163, 1-[4-(6,7-dimethoxyquinolin-4-yloxy)-2,5-dimethylphenyl]-3-phenylacetylthiourea] | 202
COc1cc2nccc(Oc3ccc(NC(=S)NC(=O)Cc4cccc(F)c4)cc3)c2cc1OC [Example 164, 1-[4-(6,7-dimethoxyquinolin-4-yloxy)phenyl]-3-[2-(3-fluorophenyl)acetyl]thiourea] | 242
CCOCCC(=O)NC(=S)Nc1ccc(Oc2ccnc3cc(OC)c(OC)cc23)c(F)c1 [Example 165, 1-[4-(6,7-dimethoxyquinolin-4-yloxy)-3-fluorophenyl]-3-(3-ethoxypropionyl)thiourea] | 495
COc1cc2nccc(Oc3ccc(NC(=S)NC(=O)CC4CCCCC4)c(F)c3)c2cc1OC [Example 166, 1-(2-cyclohexylacetyl)-3-[4-(6,7-dimethoxy-quinolin-4-yloxy)-2-fluorophenyl]thiourea] | 318
CCCCOCC(=O)NC(=S)Nc1ccc(Oc2ccnc3cc(OC)c(OC)cc23)c(F)c1 [Example 167, 1-(2-butoxyacetyl)-3-[4-(6,7-dimethoxy-quinolin-4-yloxy)-3-fluorophenyl]thiourea] | 259
COc1cc2nccc(Oc3ccc(NC(=S)NC(=O)Cc4ccc(C)cc4)cc3)c2cc1OC [Example 168, 1-[4-(6,7-dimethoxyquinolin-4-yloxy)phenyl]-3-(2-p-tolylacetyl)thiourea] | 306
COc1ccccc1CC(=O)NC(=S)Nc1ccc(Oc2ccnc3cc(OC)c(OC)cc23)cc1F [Example 169, 1-[4-(6,7-dimethoxyquinolin-4-yloxy)-2-fluorophenyl]-3-[2-(2-methoxyphenyl)acetyl]thiourea] | 276

SMILES | IC50 [nM]
COc1cc2nccc(Oc3ccc(NC(=S)NC(=O)Cc4ccccc4C)c(F)c3)c2cc1OC [Example 170, 1-[4-(6,7-dimethoxyquinolin-4-yloxy)-2-fluorophenyl]-3-(2-o-tolylacetyl)thiourea] | 274
COc1cc2nccc(Oc3ccc(NC(=S)NC(=O)Cc4cccc(Cl)c4)cc3)c2cc1OC [Example 171, 1-[2-(3-chlorophenyl)acetyl]-3-[4-(6,7-dimethoxyquinolin-4-yloxy)phenyl]thiourea] | 282
COc1cc2nccc(Oc3ccc(NC(=S)NC(=O)Cc4cccc(Cl)c4)c(F)c3)c2cc1OC [Example 172, 1-[2-(3-chlorophenyl)acetyl]-3-[4-(6,7-dimethoxyquinolin-4-yloxy)-2-fluorophenyl]thiourea] | 423
COc1cc2nccc(Oc3ccc(NC(=S)NC(=O)Cc4cccc(Cl)c4)cc3F)c2cc1OC [Example 173, 1-[2-(3-chlorophenyl)acetyl]-3-[4-(6,7-dimethoxyquinolin-4-yloxy)-3-fluorophenyl]thiourea] | 222
COc1cc2nccc(Oc3ccc(NC(=S)NC(=O)Cc4cccc(Cl)c4)cc3Cl)c2cc1OC [Example 174, 1-[3-chloro-4-(6,7-dimethoxyquinolin-4-yloxy)phenyl]-3-[2-(3-chlorophenyl)acetyl]thiourea] | 252
COc1cc2nccc(Oc3ccc(NC(=S)NC(=O)Cc4cccc(C)c4)c(F)c3)c2cc1OC [Example 175, 1-[4-(6,7-dimethoxyquinolin-4-yloxy)-2-fluorophenyl]-3-(2-m-tolylacetyl)thiourea] | 955
COc1cc2nccc(Oc3ccc(NC(=S)NC(=O)Cc4cccc(C)c4)cc3F)c2cc1OC [Example 176, 1-[4-(6,7-dimethoxyquinolin-4-yloxy)-3-fluorophenyl]-3-(2-m-tolylacetyl)thiourea] | 221
COc1cc2nccc(Oc3ccc(NC(=S)NC(=O)CCCC(C)C)cc3)c2cc1OC [Example 177, 1-[4-(6,7-dimethoxyquinolin-4-yloxy)phenyl]-3-(5-methyl-hexanoyl)thiourea] | 267
COc1cc2nccc(Oc3ccc(NC(=S)NC(=O)CCCC(C)C)c(F)c3)c2cc1OC [Example 178, 1-[4-(6,7-dimethoxyquinolin-4-yloxy)-2-fluorophenyl]-3-(5-methyl-hexanoyl)thiourea] | 268
COc1cc2nccc(Oc3ccc(NC(=S)NC(=O)CCCC(C)C)cc3F)c2cc1OC [Example 179, 1-[4-(6,7-dimethoxyquinolin-4-yloxy)-3-fluorophenyl]-3-(5-methyl-hexanoyl)thiourea] | 261
COCCC(=O)NC(=S)Nc1ccc(Oc2ccnc3cc(OC)c(OC)cc23)c(Cl)c1 [Example 180, 1-[3-chloro-4-(6,7-dimethoxyquinolin-4-yloxy)phenyl]-3-(3-methoxy-propionyl)thiourea] | 2560
COc1cccc(CC(=O)NC(=S)Nc2ccc(Oc3ccnc4cc(OC)c(OC)cc34)c(F)c2)c1 [Example 181, 1-[4-(6,7-dimethoxyquinolin-4-yloxy)-3-fluorophenyl]-3-[2-(3-methoxyphenyl)acetyl]thiourea] | 243
COc1cc2nccc(Oc3ccc(NC(=S)NC(=O)Cc4ccccc4Cl)c(F)c3)c2cc1OC [Example 182, 1-[2-(2-chlorophenyl)acetyl]-3-[4-(6,7-dimethoxyquinolin-4-yloxy)-2-fluorophenyl]thiourea] | 256
COc1cc2nccc(Oc3ccc(NC(=S)NC(=O)Cc4ccccc4Cl)cc3Cl)c2cc1OC [Example 183, 1-[3-chloro-4-(6,7-dimethoxyquinolin-4-yloxy)phenyl]-3-[2-(2-chlorophenyl)acetyl]thiourea] | 224
COc1cccc(CC(=O)NC(=S)Nc2ccc(Oc3ccnc4cc(OC)c(OC)cc34)cc2)c1 [Example 184, 1-[4-(6,7-dimethoxyquinolin-4-yloxy)phenyl]-3-[2-(3-methoxyphenyl)acetyl]thiourea] | 268
COc1cccc(CC(=O)NC(=S)Nc2ccc(Oc3ccnc4cc(OC)c(OC)cc34)cc2F)c1 [Example 185, 1-[4-(6,7-dimethoxyquinolin-4-yloxy)-2-fluorophenyl]-3-[2-(3-methoxyphenyl)acetyl]thiourea] | 248
COc1cccc(CC(=O)NC(=S)Nc2ccc(Oc3ccnc4cc(OC)c(OC)cc34)c(Cl)c2)c1 [Example 186, 1-[3-chloro-4-(6,7-dimethoxyquinolin-4-yloxy)phenyl]-3-[2-(3-methoxyphenyl)acetyl]thiourea] | 234
COc1cc2nccc(Oc3ccc(NC(=S)NC(=O)Cc4ccc(Cl)cc4)cc3)c2cc1OC [Example 187, 1-[2-(4-chlorophenyl)acetyl]-3-[4-(6,7-dimethoxyquinolin-4-yloxy)phenyl]thiourea] | 258
COc1cc2nccc(Oc3ccc(NC(=S)NC(=O)Cc4ccc(Cl)cc4)c(F)c3)c2cc1OC [Example 188, 1-[2-(4-chlorophenyl)acetyl]-3-[4-(6,7-dimethoxyquinolin-4-yloxy)-2-fluorophenyl]thiourea] | 252
